Data from PMC2720136 (Bioorganic & medicinal chemistry, 2009).

What was measured:
pig kidney FBPase = target: T1, pig kidney FBPase (Sus scrofa, UniProt P00636); assay: Coupled-enzyme FBPase activity assay; format: biochemical
T1 sequence (P00636 1-338): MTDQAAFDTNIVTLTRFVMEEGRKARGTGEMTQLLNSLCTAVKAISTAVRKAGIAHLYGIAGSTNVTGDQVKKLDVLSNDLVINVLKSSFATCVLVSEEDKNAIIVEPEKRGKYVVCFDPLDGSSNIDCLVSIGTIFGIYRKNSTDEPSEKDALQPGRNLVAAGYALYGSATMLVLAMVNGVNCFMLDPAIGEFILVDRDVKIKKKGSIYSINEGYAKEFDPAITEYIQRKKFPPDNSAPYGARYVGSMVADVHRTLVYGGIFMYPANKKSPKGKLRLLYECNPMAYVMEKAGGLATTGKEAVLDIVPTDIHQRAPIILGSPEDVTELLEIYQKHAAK

human liver FBPase = assay: Inhibition of human liver FBPase by MB05032; format: biochemical; conditions: MB05032 EC50 (human liver FBPase) vs 4c IC50 (pig kidney FBPase)

`Oc1ccc(Nc2nc(-c3ccc(O)cc3)cs2)cc1` [Compound 3b, 4-(4-(4-Hydroxyphenyl)thiazol-2-ylamino)phenol] was tested, and the “fold improved inhibitory activity of 3b over 3a” value (pig kidney FBPase; ratio of IC50, 3a vs 3b) was 3 fold.
`O=[N+]([O-])c1ccc(-c2csc(Nc3ccc(O)cc3)n2)cc1` [Compound 3d, 4-(4-(4-Nitrophenyl)thiazol-2-ylamino)phenol] was tested, and the “inhibition with nitro at R5 (in words)” value (pig kidney FBPase; pig kidney FBPase) was “eliminated”.
For `Oc1ccc(-c2csc(Nc3ccccc3O)n2)cc1` [Compound 5b, 2-(4-(4-Hydroxyphenyl)thiazol-2-ylamino)phenol], the “fold improved inhibition of 5b over 5a” value (pig kidney FBPase; ratio of IC50, 5a vs 5b) was ~18 fold.
`O=[N+]([O-])c1cccc(Nc2nc(-c3ccccc3)cs2)c1` [Compound 7a, N-(3-Nitrophenyl)-4-phenylthiazol-2-amine] was tested, and the “inhibitory activity against the enzyme at 300 μM” value (pig kidney FBPase; pig kidney FBPase, 300 μM inhibitor) was “no significant inhibitory activity”.
In the case of `O=[N+]([O-])c1ccc(-c2csc(Nc3ccccc3)n2)cc1` [Compound 8e, 4-(4-Nitrophenyl)-N-phenylthiazol-2-amine], the “inhibition with nitro at R5 (in words)” value (pig kidney FBPase; pig kidney FBPase) was “eliminates inhibition”.
`CC(C)Cc1sc(N)nc1-c1ccc(P(=O)(O)O)o1` [MB05032] was tested, and the “fold better than 4c” value (human liver FBPase) was “approximately 370 fold”.
